Results taken from patent publication US20220380314A1, “SUBSTITUTED, SATURATED AND UNSATURATED N-HETEROCYCLIC CARBOXAMIDES AND RELATED COMPOUNDS FOR THEIR USE IN THE TREATMENT OF MEDICAL DISORDERS” (Bial - R&D Investments, S.A., priority 2019, published 2022).
In brackets after ≈: the same amount, converted by molar mass. Like-named read-outs stand apart in the source and are kept apart here.

How the values were obtained:
[1] = Compound solubility in water; assay type: physicochemical
acid ceramidase (hACR) = target: T1, acid ceramidase (hACR) (Homo sapiens, UniProt Q13510); experiment: Acid ceramidase inhibition, biochemical fluorescent assay with cell lysates overexpressing acid ceramidase, substrate Rbm14-12
T1 construct: expressed in transfected cells; cell lysate used
T1 sequence (Q13510 143-395 limits assumed): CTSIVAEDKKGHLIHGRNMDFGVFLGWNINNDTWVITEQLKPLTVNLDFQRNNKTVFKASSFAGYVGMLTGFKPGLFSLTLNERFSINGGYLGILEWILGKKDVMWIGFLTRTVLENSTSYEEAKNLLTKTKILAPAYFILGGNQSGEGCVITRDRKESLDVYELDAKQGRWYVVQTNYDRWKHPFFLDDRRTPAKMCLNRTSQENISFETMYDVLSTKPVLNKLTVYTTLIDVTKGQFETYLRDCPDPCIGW
T1 sequence (Q13510 22-142 limits assumed): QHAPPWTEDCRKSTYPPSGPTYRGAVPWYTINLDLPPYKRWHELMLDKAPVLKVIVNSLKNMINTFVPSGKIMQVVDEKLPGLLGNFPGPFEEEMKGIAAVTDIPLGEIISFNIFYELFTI
How it was run: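 Enzyme source was lysate (10 µg protein) from cells overexpressing acid ceramidase, preincubated 1 hr at RT with compound dose series in 25 mM NaAc, 100 mM NaCl, pH 4.5. Rbm14-12 (6.3 μM final) reacted 1 hr at RT; stop buffer (methanol, NaIO4, glycine, pH 10.6) 1 hr, fluorescence ex360/em446; IC50 from four-parameter fit.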

[2] = cell lysates overexpressing acid ceramidase, 1 hr preincubation at RT, pH 4.5, substrate Rbm14-12 6.3 μM, read-out: hACR IC50

| Structure (SMILES) | solubility [1] | IC50 (acid ceramidase (hACR); [2]) | IC50 (acid ceramidase (hACR)) |
| --- | --- | --- | --- |
| CC1(C)CC(N2CCCCC2)CCN1C(=O)NCCCCc1ccccc1 (stereo not shown) [Example 83, 2,2-Dimethyl-N-(4-phenylbutyl)-4-(1-piperidyl)piperidine-1-carboxamide] | > 100 µM | < 200 nM | – |
| CC1(C)CC(N2CCC(F)(F)CC2)CCN1C(=O)NCCCCc1ccccc1 (stereo not shown) [Example 86, 4-(4,4-Difluoro-1-piperidyl)-2,2-dimethyl-N-(4-phenylbutyl)piperidine-1-carboxamide] | 31 µM (≈ 12.6 µg/mL) | < 200 nM | – |
| CN(c1ccccc1)C1CCN(C(=O)NCCCCc2ccccc2)C(C)(C)C1.Cl (stereo not shown) [Example 88, 2,2-Dimethyl-4-(N-methylanilino)-N-(4-phenylbutyl)piperidine-1-carboxamide hydrochloride] | 0.01 µM | > 1000 nM | – |
| CC1(C)CC(Oc2ccccc2)CCN1C(=O)NCCCCc1ccccc1 (stereo not shown) [Example 89, 2,2-Dimethyl-4-phenoxy-N-(4-phenylbutyl)piperidine-1-carboxamide] | 0.01 µM (≈ 0.00381 µg/mL) | < 200 nM | – |
| CCCCCNC(=O)N1[C@H](C)CN(C2CC2)C[C@@H]1C [Example 115, (2S,6R)-4-cyclopropyl-2,6-dimethyl-N-pentylpiperazine-1-carboxamide] | 69.1 µM (≈ 18.5 µg/mL) | < 200 nM | – |
| CCCCCNC(=O)N1C(C)COCC1(C)C (stereo not shown) [Example 132, 3,3,5-Trimethyl-N-pentylmorpholine-4-carboxamide] | 88.3 µM (≈ 21.4 µg/mL) | < 200 nM | – |
| CCCCCNC(=O)N1C(c2ccc(F)cc2)COCC1(C)C (stereo not shown) [Example 137, 5-(4-Fluorophenyl)-3,3-dimethyl-N-pentylmorpholine-4-carboxamide] | 93 µM (≈ 30 µg/mL) | < 200 nM | – |
| COc1ccc(C2COCC(C)(C)N2C(=O)NCC2CCOCC2)cc1 (stereo not shown) [Example 145, 5-(4-Methoxyphenyl)-3,3-dimethyl-N-(tetrahydropyran-4-ylmethyl)morpholine-4-carboxamide] | 91.3 µM (≈ 33.1 µg/mL) | – | 200 to 1000 nM |
| CN1CC(c2ccccc2)N(C(=O)NCCCCc2ccccc2)C(C)(C)C1 (stereo not shown) [Example 165, 2,2,4-Trimethyl-6-phenyl-N-(4-phenylbutyl)piperazine-1-carboxamide] | 71.6 µM (≈ 27.2 µg/mL) | < 200 nM | – |

Further lines, with some results ahead:

| solubility [1] | IC50 (acid ceramidase (hACR); [2]) | Structure (SMILES) | IC50 (acid ceramidase (hACR)) |
| --- | --- | --- | --- |
| 97.8 µM (≈ 31.1 µg/mL) | < 200 nM | COc1ccc(C2COCC(C)(C)N2C(=O)NCC2CC2)cc1 (stereo not shown) [Example 144, N-(Cyclopropylmethyl)-5-(4-methoxyphenyl)-3,3-dimethylmorpholine-4-carboxamide] | – |
| 79.2 µM (≈ 28.5 µg/mL) | 200 to 1000 nM | COc1ccc(C2COCC(C)(C)N2C(=O)NCCC(F)(F)F)cc1 (stereo not shown) [Example 153, 5-(4-Methoxyphenyl)-3,3-dimethyl-N-(3,3,3-trifluoropropyl)morpholine-4-carboxamide] | – |
| 92.9 µM (≈ 28.8 µg/mL) | 200 to 1000 nM | COc1ccc(C2COCC(C)(C)N2C(=O)NCCF)cc1 (stereo not shown) [Example 154, N-(2-Fluoroethyl)-5-(4-methoxyphenyl)-3,3-dimethylmorpholine-4-carboxamide] | – |
| 91 µM (≈ 30.4 µg/mL) | < 200 nM | CCCCCNC(=O)N1C(c2ccc(OC)cc2)COCC1(C)C (stereo not shown) [Example 156, 5-(4-Methoxyphenyl)-3,3-dimethyl-N-pentylmorpholine-4-carboxamide] | – |
| > 100 µM | < 200 nM | COc1ccc(C2COCC(C)(C)N2C(=O)NCCOCC2CC2)cc1 (stereo not shown) [Example 157, N-[2-(Cyclopropylmethoxy)ethyl]-5-(4-methoxyphenyl)-3,3-dimethylmorpholine-4-carboxamide] | – |
